Assay results: the supplement of paper PMC10307832

Legend:
Assay in all cases: relative viability (nuclei count vs DMSO), 5 days (fraction); higher = more cells survive
H3255 = system: H3255
In short: (§1)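 Relative viability divides the nuclei count in treated wells by that in vehicle wells. Lung cancer cell lines were seeded in 1536-well plates, dosed by pin tool the next day, and fixed and stained after 5 days in one step with final 0.05% Triton X-100, 1% formaldehyde and 1 ug/ml Hoechst. Dosing was a single drug or a fixed anchor-drug dose plus five library-drug doses (not always all listed) in √10 steps, and values are medians of duplicate plates imaged at 4×.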

NCI-H596 = system: NCI-H596
In short: as §1

UMC-11 = system: UMC-11
In short: as §1

NCI-H322M = system: NCI-H322M
In short: as §1

NCI-H838 = system: NCI-H838
In short: as §1

NCI-H2087 = system: NCI-H2087
In short: as §1

LCLC-97TM1 = system: LCLC-97TM1
In short: as §1

BEN = system: BEN
In short: as §1

NCI-H661 = system: NCI-H661
In short: as §1

HCC-78 = system: HCC-78
In short: as §1

PC-3 [JPC-3] = system: PC-3 [JPC-3]
In short: as §1

SK-MES-1 = system: SK-MES-1
In short: as §1

LK-2 = system: LK-2
In short: as §1

NCI-H1944 = system: NCI-H1944
In short: as §1

HCC-15 = system: HCC-15
In short: as §1

LU99A = system: LU99A
In short: as §1

NCI-H1651 = system: NCI-H1651
In short: as §1

NCI-H358 = system: NCI-H358
In short: as §1

LC-2-ad = system: LC-2-ad
In short: as §1

LXF-289 = system: LXF-289
In short: as §1

NCI-H1666 = system: NCI-H1666
In short: as §1

NCI-H650 = system: NCI-H650
In short: as §1

In the case of `CC(C)Oc1cc(Nc2nc(N[C@@H](C)c3ccc(F)cn3)ncc2Cl)n[nH]1` [AZ23] + C[C@]1(O)C[C@@H](c2nc(-c3ccc4ccc(-c5ccccc5)nc4c3)c3c(N)nccn32)C1 [Linsitinib] (partner 1 µM), the relative viability (H3255; first compound 0.01 µM) was 1.03, the relative viability (H3255; first compound 0.03162 µM) was 1.08 and the relative viability (H3255; first compound 0.3162 µM) was 0.985. The relative viability (NCI-H596; first compound 0.01 µM) was 1.09, the relative viability (NCI-H596; first compound 0.03162 µM) was 1.18 and the relative viability (NCI-H596; first compound 0.3162 µM) was 1. For the same molecule, the relative viability (UMC-11; first compound 0.01 µM) was 1.04, the relative viability (UMC-11; first compound 0.03162 µM) was 1.04 and the relative viability (UMC-11; first compound 0.3162 µM) was 1.01. It also gave a relative viability (NCI-H322M; first compound 0.01 µM) of 0.919, a relative viability (NCI-H322M; first compound 0.03162 µM) of 0.957 and a relative viability (NCI-H322M; first compound 0.3162 µM) of 1.13. The relative viability (NCI-H838; first compound 0.01 µM) was 1.02, the relative viability (NCI-H838; first compound 0.03162 µM) was 1.23 and the relative viability (NCI-H838; first compound 0.3162 µM) was 0.945. The relative viability (NCI-H2087; first compound 0.01 µM) was 1.34, the relative viability (NCI-H2087; first compound 0.03162 µM) was 1.06 and the relative viability (NCI-H2087; first compound 0.3162 µM) was 0.955. It also gave a relative viability (LCLC-97TM1; first compound 0.01 µM) of 0.185, a relative viability (LCLC-97TM1; first compound 0.03162 µM) of 0.17 and a relative viability (LCLC-97TM1; first compound 0.3162 µM) of 0.168. The relative viability (BEN; first compound 0.01 µM) was 1, the relative viability (BEN; first compound 0.03162 µM) was 0.966 and the relative viability (BEN; first compound 0.3162 µM) was 0.977. It also gave a relative viability (NCI-H661; first compound 0.01 µM) of 0.531, a relative viability (NCI-H661; first compound 0.03162 µM) of 0.776 and a relative viability (NCI-H661; first compound 0.3162 µM) of 0.623. For the same molecule, the relative viability (HCC-78; first compound 0.01 µM) was 0.495, the relative viability (HCC-78; first compound 0.03162 µM) was 0.431 and the relative viability (HCC-78; first compound 0.3162 µM) was 0.434. It also gave a relative viability (PC-3 [JPC-3]; first compound 0.01 µM) of 1.03, a relative viability (PC-3 [JPC-3]; first compound 0.03162 µM) of 1.04 and a relative viability (PC-3 [JPC-3]; first compound 0.3162 µM) of 0.973. It also gave a relative viability (SK-MES-1; first compound 0.01 µM) of 1.09, a relative viability (SK-MES-1; first compound 0.03162 µM) of 1.16 and a relative viability (SK-MES-1; first compound 0.3162 µM) of 1.12. For the same molecule, the relative viability (LK-2; first compound 0.01 µM) was 0.325, the relative viability (LK-2; first compound 0.03162 µM) was 0.538 and the relative viability (LK-2; first compound 0.3162 µM) was 0.5. For the same molecule, the relative viability (NCI-H1944; first compound 0.01 µM) was 1.12, the relative viability (NCI-H1944; first compound 0.03162 µM) was 1.18 and the relative viability (NCI-H1944; first compound 0.3162 µM) was 1.26. For the same molecule, the relative viability (HCC-15; first compound 0.01 µM) was 0.916, the relative viability (HCC-15; first compound 0.03162 µM) was 0.906 and the relative viability (HCC-15; first compound 0.3162 µM) was 0.875. It also gave a relative viability (LU99A; first compound 0.01 µM) of 0.534, a relative viability (LU99A; first compound 0.03162 µM) of 0.579 and a relative viability (LU99A; first compound 0.3162 µM) of 0.593. It also gave a relative viability (NCI-H1651; first compound 0.01 µM) of 0.691, a relative viability (NCI-H1651; first compound 0.03162 µM) of 1 and a relative viability (NCI-H1651; first compound 0.3162 µM) of 1.18. For the same molecule, the relative viability (NCI-H358; first compound 0.01 µM) was 0.742, the relative viability (NCI-H358; first compound 0.03162 µM) was 0.771 and the relative viability (NCI-H358; first compound 0.3162 µM) was 0.793. It also gave a relative viability (LC-2-ad; first compound 0.01 µM) of 0.941, a relative viability (LC-2-ad; first compound 0.03162 µM) of 0.931 and a relative viability (LC-2-ad; first compound 0.3162 µM) of 0.851. It also gave a relative viability (LXF-289; first compound 0.01 µM) of 1.13, a relative viability (LXF-289; first compound 0.03162 µM) of 1.1 and a relative viability (LXF-289; first compound 0.3162 µM) of 0.941. The relative viability (NCI-H1666; first compound 0.01 µM) was 0.719, the relative viability (NCI-H1666; first compound 0.03162 µM) was 0.943 and the relative viability (NCI-H1666; first compound 0.3162 µM) was 0.775. For the same molecule, the relative viability (NCI-H650; first compound 0.01 µM) was 0.648, the relative viability (NCI-H650; first compound 0.03162 µM) was 0.893 and the relative viability (NCI-H650; first compound 0.3162 µM) was 0.857.

Work on `CC(C)Oc1cc(Nc2nc(N[C@@H](C)c3ccc(F)cn3)ncc2Cl)n[nH]1` [AZ23] + Cc1nc(NC(=O)N2CCC[C@H]2C(N)=O)sc1-c1ccnc(C(C)(C)C(F)(F)F)c1 [Alpelisib] (partner 2 µM) yielded a relative viability (H3255; first compound 0.01 µM) of 0.637, a relative viability (H3255; first compound 0.03162 µM) of 0.868 and a relative viability (H3255; first compound 0.3162 µM) of 0.863. The relative viability (NCI-H596; first compound 0.01 µM) was 0.51, the relative viability (NCI-H596; first compound 0.03162 µM) was 0.528 and the relative viability (NCI-H596; first compound 0.3162 µM) was 0.418. It also gave a relative viability (UMC-11; first compound 0.01 µM) of 0.883, a relative viability (UMC-11; first compound 0.03162 µM) of 1.07 and a relative viability (UMC-11; first compound 0.3162 µM) of 0.943. The relative viability (NCI-H322M; first compound 0.01 µM) was 0.774, the relative viability (NCI-H322M; first compound 0.03162 µM) was 0.774 and the relative viability (NCI-H322M; first compound 0.3162 µM) was 0.823. It also gave a relative viability (NCI-H838; first compound 0.01 µM) of 0.968, a relative viability (NCI-H838; first compound 0.03162 µM) of 1.25 and a relative viability (NCI-H838; first compound 0.3162 µM) of 0.998. The relative viability (NCI-H2087; first compound 0.01 µM) was 1.39, the relative viability (NCI-H2087; first compound 0.03162 µM) was 1.07 and the relative viability (NCI-H2087; first compound 0.3162 µM) was 1.07. For the same molecule, the relative viability (LCLC-97TM1; first compound 0.01 µM) was 0.228, the relative viability (LCLC-97TM1; first compound 0.03162 µM) was 0.246 and the relative viability (LCLC-97TM1; first compound 0.3162 µM) was 0.245. For the same molecule, the relative viability (BEN; first compound 0.01 µM) was 1.02, the relative viability (BEN; first compound 0.03162 µM) was 1.18 and the relative viability (BEN; first compound 0.3162 µM) was 1.09. The relative viability (NCI-H661; first compound 0.01 µM) was 0.629, the relative viability (NCI-H661; first compound 0.03162 µM) was 0.686 and the relative viability (NCI-H661; first compound 0.3162 µM) was 0.908. For the same molecule, the relative viability (HCC-78; first compound 0.01 µM) was 0.348, the relative viability (HCC-78; first compound 0.03162 µM) was 0.286 and the relative viability (HCC-78; first compound 0.3162 µM) was 0.306. For the same molecule, the relative viability (PC-3 [JPC-3]; first compound 0.01 µM) was 1.14, the relative viability (PC-3 [JPC-3]; first compound 0.03162 µM) was 1.06 and the relative viability (PC-3 [JPC-3]; first compound 0.3162 µM) was 0.962. For the same molecule, the relative viability (SK-MES-1; first compound 0.01 µM) was 1.01, the relative viability (SK-MES-1; first compound 0.03162 µM) was 0.997 and the relative viability (SK-MES-1; first compound 0.3162 µM) was 1.06. For the same molecule, the relative viability (LK-2; first compound 0.03162 µM) was 1.26, the relative viability (LK-2; first compound 0.3162 µM) was 1.17 and the relative viability (NCI-H1944; first compound 0.01 µM) was 0.811. It also gave a relative viability (NCI-H1944; first compound 0.03162 µM) of 0.868, a relative viability (NCI-H1944; first compound 0.3162 µM) of 0.883 and a relative viability (HCC-15; first compound 0.01 µM) of 1.13. It also gave a relative viability (HCC-15; first compound 0.03162 µM) of 0.857, a relative viability (HCC-15; first compound 0.3162 µM) of 0.877 and a relative viability (LU99A; first compound 0.01 µM) of 0.49. It also gave a relative viability (LU99A; first compound 0.03162 µM) of 0.651, a relative viability (LU99A; first compound 0.3162 µM) of 0.555 and a relative viability (NCI-H1651; first compound 0.01 µM) of 0.773. It also gave a relative viability (NCI-H1651; first compound 0.03162 µM) of 1.05, a relative viability (NCI-H1651; first compound 0.3162 µM) of 1.16 and a relative viability (NCI-H358; first compound 0.01 µM) of 0.937. It also gave a relative viability (NCI-H358; first compound 0.03162 µM) of 0.855, a relative viability (NCI-H358; first compound 0.3162 µM) of 0.928 and a relative viability (LC-2-ad; first compound 0.01 µM) of 1.01. It also gave a relative viability (LC-2-ad; first compound 0.03162 µM) of 0.895, a relative viability (LC-2-ad; first compound 0.3162 µM) of 0.892 and a relative viability (LXF-289; first compound 0.01 µM) of 1.15. It also gave a relative viability (LXF-289; first compound 0.03162 µM) of 1.08, a relative viability (LXF-289; first compound 0.3162 µM) of 1.05 and a relative viability (NCI-H1666; first compound 0.01 µM) of 0.869. It also gave a relative viability (NCI-H1666; first compound 0.03162 µM) of 1.02, a relative viability (NCI-H1666; first compound 0.3162 µM) of 0.92 and a relative viability (NCI-H650; first compound 0.01 µM) of 1.03. The relative viability (NCI-H650; first compound 0.03162 µM) was 1.19 and the relative viability (NCI-H650; first compound 0.3162 µM) was 1.16.
